In ChEMBL document CHEMBL3804762, “Novel indoleflutimide heterocycles with activity against influenza PA endonuclease and hepatitis C virus” (Medchemcomm, 2016):
Active and inactive are the calls of the source. The calls are words filed in the database; no cut-off is given here.

What was measured:
[1] = Lipophilicity, log D of compound; assay type: physicochemical; conditions: octanol/water
[2] = Cytotoxicity against human Huh5-2 cells assessed as cell viability after 72 hrs by Alamar blue dye based colorimetric analysis; parameters: species or system Huh-5-2; conditions: read-out: LC50
[3] = Cytotoxicity against HEK293T cells assessed as effect on cell morphology after 24 hrs by microscopic analysis; assay type: cell-based, HEK-293T; conditions: human
[4] = biological target: T1, Polymerase acidic protein (Influenza A virus (strain A/X-31 H3N2), UniProt Q9IQ47); assay: Inhibition of recombinant Influenza A/X-31 virus PA (N-terminal amino acid residue 1-217) transfected in Escherichia coli assessed as endonucleolytic digestion using single-stranded circular DNA plasmid M13mp18 after 2 hrs by ethidium bromide staining based agarose gel electrophoresis; parameters: species or system Influenza A virus (A/X-31(H3N2))
Hepatitis C virus [5] = assay: Antiviral activity against HCV Con1 infected in human Huh5-2 cells haboring firefly luciferase expressing subgenomic replicon of HCV genotype 1b after 72 hrs by luciferase reporter gene assay; assay type: functional, organism-based, Hepacivirus hominis; conditions: isolate Con1, Huh-5-2, 72 h
[6] = Dissociation constant, pKa of compound; assay type: physicochemical
[7] = Selectivity index, ratio of LC50 for human Huh5-2 cells to EC50 for HCV Con1 infected in human Huh5-2 cells haboring firefly luciferase expressing subgenomic replicon of HCV genotype 1b; parameters: species or system Huh-5-2
[8] = biological target: T1, Polymerase acidic protein; assay: Inhibition of recombinant Influenza A/X-31 virus PA infected in HEK293T cells after 2 hrs by vRNP reconstitution assay; assay type: cell-based, Influenza A virus (A/X-31(H3N2)), HEK-293T
[9] = biological target: Polymerase acidic protein (Influenza A virus (A/Puerto Rico/8/1934(H1N1)), UniProt P03433); assay: Inhibition of Influenza A/PR/8/34 virus PA endonuclease by cap dependent RNA polymerase assay
Hepatitis C virus [10] = assay: Antiviral activity against HCV Con1 infected in human Huh5-2 cells haboring firefly luciferase expressing subgenomic replicon of HCV genotype 1b at 100 uM after 7 days by luciferase reporter gene assay; assay type: functional, organism-based; conditions: Hepacivirus hominis, isolate Con1, Huh-5-2
[11] = biological target: T2, Nonstructural protein 5A (Hepatitis C virus) (UniProt Q5L478); assay: Inhibition of HCV NS5A in Huh5-2 replicon cells at 100 uM propidium iodide staining based confocal microscopic analysis; assay type: cell-based; conditions: Hepacivirus hominis
T2 sequence (whole entry): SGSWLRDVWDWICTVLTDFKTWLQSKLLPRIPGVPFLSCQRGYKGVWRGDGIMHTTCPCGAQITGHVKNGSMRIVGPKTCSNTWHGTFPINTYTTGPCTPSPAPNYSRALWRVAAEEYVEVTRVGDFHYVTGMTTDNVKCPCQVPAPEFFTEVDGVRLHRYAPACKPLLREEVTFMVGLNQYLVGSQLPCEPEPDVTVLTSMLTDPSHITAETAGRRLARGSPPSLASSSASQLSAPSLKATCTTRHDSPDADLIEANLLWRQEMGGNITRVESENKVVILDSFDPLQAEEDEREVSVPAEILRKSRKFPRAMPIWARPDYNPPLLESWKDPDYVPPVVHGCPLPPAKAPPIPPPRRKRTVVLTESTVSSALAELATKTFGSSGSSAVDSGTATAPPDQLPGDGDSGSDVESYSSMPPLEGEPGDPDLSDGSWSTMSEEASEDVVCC

SMILES	logD [1]	CC50 at 72 h [2] [µM]	MCC at 24 h [3] [µM]	IC50 [4] [µM]	EC50 (Hepatitis C virus [5]) [µM]	pKa [6]	Selectivity Index [7]	EC50 [8] [µM]	IC50 [9] [µM]	Activity (Hepatitis C virus [10])	inhibition [11]
O=C1Cn2c(cc3cc(F)ccc32)C(=O)N1O	0.71	> 200	≥ 500	17.3	83.8	7.27	>2.4	> 500			
O=C(O)C(=O)CC(=O)c1ccccc1	-1.73	> 200		5.4	> 200	2.85					
O=C1Cc2ccccc2CC(=O)N1O									> 500		
O=C1Cn2c(cc3cc(Cl)ccc32)C(=O)N1O	1.17	> 200	≥ 500	26.9	10.5	7.27	>19.1	114		inactive	Active
O=C1Cn2c(cc3ccccc32)C(=O)N1	0.75	> 200		> 500	> 200	9.3					
O=C1Cn2c(cc3cc(O)ccc32)C(=O)N1O	0.26	> 200	≥ 500	29.2	> 200	7.27		75			
O=C1Cn2c(cc3ccccc32)C(=O)N1O	0.57	> 200	≥ 500	12.7	126	7.27	>1.6	297			
COc1ccc2c(c1)cc1n2CC(=O)N(O)C1=O	0.41	> 200	≥ 500	23	> 200	7.27		48			
